Reference: patent US20220218614A1, “IONIZABLE CATIONIC LIPIDS AND LIPID NANOPARTICLES, AND METHODS OF SYNTHESIS AND USE THEREOF” (Tidal Therapeutics, Inc., priority 2020, published 2022)
Entries after “also recorded” stand apart in the source; their conditions may differ.

Columns and labels:
human CD3 T cells = experiment: Transfection of human CD3 T cells (CD8 and CD4 subsets) with Fab/Nb-targeted LNPs; assay type: cell-based; conditions: targeted Lipid 8 LNP (Lipid 5 in Example 43), GFP mRNA approximately 2.5 μg/mL, approximately 24 hr
Experimental: LNPs were prepared using the mixing process described in Example 6, the buffer exchange process described below in Example 21. Using methods similar to Example 12, hSP34 and TRX2 Fab-lipid conjugates and a non-T cell specific anti-HER2 lipid-conjugate (Nellis D F, Ekstrom D L, Kirpotin D B, Zhu J, Andersson R, Broadt T L, Ouellette T F, Perkins S C, Roach J M, Drummond D C, Hong K, Marks J D, Park J W and Giardina S L (2005) Preclinical manufacture of an anti-HER2 scFv-PEG-DSPE, liposome-inserting conjugate. 1. Gram-scale production and purification. Biotechnol Prog 21:205-220) were post-inserted at various densities (SP34 0.25-17 g/mol; TRX2 0.25-9 g/mol; SP34+TRX2 0.25-9 g/mol each conjugate; anti-HER2 17 g/mol) into LNPs containing Lipid 8 and anti-CD20 targeting CART mRNA. Transfections were performed with human CD3 T cells at approximately 2.5 μg/mL mRNA for approximately 24 hr. For FACS analysis T cells were stained with M1 antibody (Sigma, F3040) that bind a N-terminus FLAG-tag variant sequence on the TTR-023 CAR (sequence provided below) in addition to staining for CD69 (Biolegend, 310930) and CD4 (Biolegend, 344648) to differentiate CD8 from CD4 cells.
LNPs were prepared using the mixing process described in Example 6, the buffer exchange process described in Example 21. Using methods similar to Example 12, hSP34, TRX2, and Ibalizumab Fab-lipid conjugates and a non-T cell specific anti-HER2 lipid-conjugate were post-inserted at various densities (specified in FIGS. 20A and 20B into LNPs containing Lipid 8 and Cy5/GFP mRNA. Transfections were performed with human CD3 T cells at approximately 2.5 μg/mL mRNA for approximately 24 hr and stained for CD69 (Biolegend, 310930) and CD4 (Biolegend, 344648) to differentiate CD8 from CD4 cells by FACS analysis.
LNPs were prepared using the mixing process described in Example 6, the buffer exchange process described in Example 21. […] Levels of transfection of CD3 T cells was measured by flow cytometry. […]

IFNγ = experiment: Human IFNγ ELISA of T cell culture supernatants after LNP transfection; assay type: cell-based; conditions: T cells approximately 24 hr after targeted LNPs at approximately 2.5 μg/mL mRNA
Experimental: LNPs were prepared using the mixing process described in Example 6, the buffer exchange process described in Example 21. hSP34 and TRX2 Fab-lipid conjugates generated from methods described in Example 4 and a non-T cell specific anti-HER2 lipid-conjugate (Nellis D F, Ekstrom D L, Kirpotin D B, Zhu J, Andersson R, Broadt T L, Ouellette T F, Perkins S C, Roach J M, Drummond D C, Hong K, Marks J D, Park J W and Giardina S L (2005) Preclinical manufacture of an anti-HER2 scFv-PEG-DSPE, liposome-inserting conjugate. 1. Gram-scale production and purification. Biotechnol Prog 21:205-220) were post-inserted at various densities (SP34 0.6-17 g/mol; TRX2 3-9 g/mol; anti-HER2 17 g/mol) into LNPs containing Lipid 8, Cy5 labeled GFP mRNA and GFP mRNA (1:9 Cy5:GFP mass ratio) by adding conjugate and LNPs together and heating the solution without mixing in a thermal cycler at 60 C for 60 min and cooled to 4° C. for 3-5 min. […] After transfection, LNP binding efficiency (Cy5) and transfection efficiency (GFP) was evaluated by flow cytometry. Supernatants were measured for human IFNγ concentration using a commercially available ELISA kit under manufacturers recommended conditions (R&D Systems Duoset).
IFN-γ was assayed using an R&D Duoset […] ELISA kit, PN DY285B. […] Optical density at 450 nm was read on a Spectramax M5 plate reader. […]

Substance	% GFP transfection and GFP expression (MFI) of CD8 and CD4 T cells, in words (human CD3 T cells)	IFNγ secretion into supernatant, in words (IFNγ)
SP34 NoDS Fab: anti-CD3 Fab without interchain disulfide, SEQ ID NO: 38 and 39	higher % transfection (FIG. 65E) and higher GFP expression levels (FIG. 65F) than the SP34 DS Fab; also recorded: higher % transfection (FIG. 67A) and higher GFP expression levels	
TRX4: anti-CD3 TRX4 bDS Fab, SEQ ID NO: 50 and 51	lower levels of GFP expression	higher levels of IFNγ secretion than SP34
